Laboratory results taken from patent US9364468B2, “Pharmaceutical composition for preventing or treating tuberculosis” (INDUSTRY-ACADEMIC COOPERATION FOUNDATION, YONSEI UNIVERSITY, priority 2012, dated 2016).

How the values were obtained:
[1] = system: marrow cell-derived macrophages; test: Cytotoxicity test, CellTiter 96 Non-Radioactive Cell Proliferation Assay, marrow cell-derived macrophages; type: cell-based; conditions: Mus musculus, Macrophage
Procedure: For preparation of mouse macrophages, the mouse femur was severed and then both ends thereof were cut. A 1-ml syringe was filled with the RPMI-1640 medium (Gibco), which was then used to isolate and take marrow cells in the femur. Blood cells were removed from the taken marrow cells by a low-osmotic buffer, and then the number of marrow cells was measured using a microscope. After appropriate dilution with the RPMI-1640 medium, the marrow cells were seeded in a 96-well microplate at 100,000 cells per well. After culturing in a CO2 incubator at 37° C. for 2 hours, cells other than the marrow cells were removed through exchange with a new RPMI-1640 medium. The medium was substituted with a culture supernatant of L929 cells, followed by culturing for 3 days. Again, the medium was substituted with a new culture supernatant of L929 cells, followed by culturing for 3 days.
Cytotoxicity was measured according to the method of Promega Inc., and 15 μl of a staining solution was applied to each well of the 96-well plate. The cells were incubated in a CO2 incubator at 37° C. for 4 hours, and then 100 μl of a quiescent solution was applied thereto. The absorbance of each well was measured at 570 nm using an absorbance measurement equipment from Molecular Devices. The absorbance values of wells not containing the compounds of Chemical Formulas 1 to 4 were compared with those of wells containing the compounds of Chemical Formulas 1 to 4 to determine the inhibition (%). The correlation between inhibition and concentration was calculated using the Prism software from Graphpad to determine IC50 (concentration at 50% inhibition) value. The marrow cell-derived macrophages were prepared by the method as described in Example 3 above.

[2] = system: Mycobacterium sp. strain JC1 wild type; test: CFU inhibition of JC1 wild type by compound alone; type: cell-based; conditions: read-out: Compound analog + JC 1 wild type (percentage (%) of CFU inhibition)
[3] = system: carbon monoxide dehydrogenase (CO-DH); test: CO-DH activity assay (INT reduction in the presence of CO, enzyme extract); type: biochemical; conditions: 12.5 μM compound; relative to control group set to 100%
Procedure: In order to obtain an enzyme extract to be used for the measurement of CO-DH activity, the bacteria cultured according to respective experiment conditions were collected by centrifugation at 18,000×g for 10 minutes at 4° C. (Eppendorf centrifuge-5403, Hamburg, Germany), washed twice with a 50 mM Tris-HCl (pH 7.5) buffer solution, and re-suspended in […] of a 50 mM Tris-HCl (pH 7.5) buffer solution. The suspended bacteria were homogenized at 0° C. by repeating 20 times of ultrasonication using an ultrasonic processor (Sonics & Materials Inc., Danbury, Conn.) wherein the ultrasonication was conducted such that ultrasonic wave at 20% amplitude was applied for 3 seconds and paused for 10 seconds. The homogenized culture solution was collected by centrifugation at 18,000×g for 30 minutes at 4° C. (Eppendorf centrifuge-5403), and a supernatant was used as an enzyme extract.
Proteins were quantified using bovine serum albumin (BSA) as a standard protein according to the method of Bradford (1976).
CO-DH activity was determined by measuring the reduction rate of 2-(4-indophenyl)-3-(4-nitrophenyl)-2H-tetrazolium chloride (INT, Sigma, ε496=17.981 mM^−1 cm^−1) in the presence of CO. Here, 1-methoxyphenazine methosulfate (MPMS, Sigma) was used as an electron transfer mediator between CO-DH and INT. A mixture solution of 19.2 ml of 50 mM Tris-HCl (pH 7.5), 250 μl of INT (9.8 mM), 50 μl of MPMS (8.9 mM), and 500 μl of Triton X-100 (25%, v/v) was saturated with CO gas. 800 μl of the resultant solution was added into a plastic cuvette, and then each compound was added thereto to a final concentration of 12.5 μM. Last, 800 μl of the enzyme extract was added thereto, followed by reaction at 30° C. for 200 seconds. Here, the absorbance change is due to red formazan generated resulting from INT reduction, and was measured at 496 nm by using a spectrophotometer (U-2000, Hitachi) equipped with a temperature adjuster. Enzyme specific activity was expressed as nmoles of reduced INT per mg of protein per minute (nmol/mg protein/min). The enzyme specific activity of each compound treatment group was expressed as a percentage of the control group of which enzyme specific activity was set to 100%, and the results were summarized in Table 1.

[4] = system: Vero cell line (ATCC CCL-81); test: Cytotoxicity test, CellTiter 96 Non-Radioactive Cell Proliferation Assay, Vero cell line; type: cell-based; conditions: Chlorocebus sabaeus, 72 h, 3 days

SMILES	IC50 [1] [µM]	inhibition at 12.5 µM [2] [%]	inhibition at 25 µM [2] [%]	inhibition at 50 µM [2] [%]	Inhibition of CO-DH activity [3] [%]	IC50 [4] [µM]
COC(=O)c1ccccc1NC(=O)CSc1ccccn1 [Compound 3]	> 100	4	2	8	15	109
COC(=O)c1ccsc1NC(=O)CSc1ccncc1 [Compound 1]	> 100	0	2	6	48	75.2
COC(=O)c1ccccc1NC(=O)CSc1ccc(Br)cc1 [Compound 2]	> 100	3	9	12	18	36.4
COC(=O)c1ccc(Cl)cc1NC(=O)CCSc1ccccn1 [Compound 4]	> 100	2	4	16	7	158
